Patent US20240010639A1, “TRIAZINE DIONE DERIVATIVE, PREPARATION METHOD THEREFOR AND APPLICATION THEREOF IN MEDICINE” (Jiangsu Hengrui Pharmaceuticals Co., Ltd., priority 2020, published 2024)
Where two headings read alike, the source gives them in different places.

Experiment: Toxicokinetic evaluation of 14-day repeated intragastric administration to SD rats
Type: in vivo
Conditions: both sexes, SD, rat, plasma, po
Protocol: With SD rats as test animals, the plasma concentrations of the test compounds and the concentrations of the original forms of the compounds in the administration solutions were measured by LC/MS/MS at different time points after intragastric administration. The toxicokinetic performance of the compound disclosed herein was studied in SD rats and its toxicokinetic profile was evaluated.
24 SD rats, an equal number of males and females, evenly divided into 6 groups of 4, an equal number of males and females in each group, provided by Vital River Laboratory Animal Technology Co., Ltd.
A certain amount of the compound of Example 16 was measured out, and 15% PEG400 and 85% (10% TPGS+1% HPMC K100LV) were added to prepare a pale yellow homogenous suspension.
A certain amount of compound MYK-461 was measured out, and 0.5% MC was added to prepare a colorless clear solution.
The compound of Example 16 was intragastrically administered at doses of 5 mg/kg, 15 mg/kg and 30 mg/kg, at a volume of 10 mL/kg.
Compound MYK-461 was administered at doses of 0.5 mg/kg, 1.5 mg/kg and 3 mg/kg, at a volume of 10 mL/kg.
0.2-mL blood samples were collected from the orbit 0.5 h, 1.0 h, 2.0 h, 4.0 h, 8.0 h and 24.0 h after administration on day 1, and before administration and 0.5 h, 1.0 h, 2.0 h, 4.0 h, 8.0 hi, 24.0 h after administration on day 7 and day 14, placed into EDTA-K2 anticoagulation tubes, and centrifuged at 10,000 rpm for 1 min (4° C.), and plasma was isolated within 1 h and stored at −20° C. before analysis. The blood collection to centrifugation process was performed under ice bath conditions. Two hours after administration, feeding was resumed.
Determination of plasma concentrations in SD rats after intragastric administration of different concentrations of test compounds: 20 μL of SD rat plasma at each time point post-dose was mixed with 50 μL of an internal standard solution (internal standard for the compound of Example 16: 100 ng/mL verapamil; internal standard for compound MYK-461: 100 ng(mL camptothecin) and 200 μL of acetonitrile; the mixture was vortexed for 5 min and centrifuged at 3700 rpm for 10 min, and 1 μL of the supernatant was taken for LC/MS/MS analysis.

**Q.** Which AUC at 1 day (15 mg/kg, repeated intragastric 15 mg/kg, Day 1, read-out: Area under curve AUC) does the source give for `Cc1ccc(F)c([C@H](C)Nc2nc(=O)n(C3CCOCC3)c(=O)[nH]2)c1` [Example 16, (S)-6-((1-(2-Fluoro-5-methylphenyl)ethyl)amino)-3-(tetrahydro-2H-pyran-4-yl)-1,3,5-triazine-2,4(1H,3H)-dione] here?
**A.** The AUC at 1 day was 80400 ng·h/mL.

**Q.** What about the CL/F (15 mg/kg, repeated intragastric 15 mg/kg, Day 1, read-out: Clearance CL/F) of the same molecule?
**A.** Its CL/F is 3.08 mL/min/kg.

**Q.** What about the half-life at 1 day (15 mg/kg, repeated intragastric 15 mg/kg, Day 1, read-out: Half-life T1/2 (converted)) of the same molecule?
**A.** The half-life at 1 day was 5.1 h.

**Q.** And the Cmax at 1 day (15 mg/kg, repeated intragastric 15 mg/kg, Day 1, read-out: Plasma concentration Cmax)?
**A.** Its Cmax at 1 day is 16100 ng/mL.

**Q.** And the MRT at 1 day (15 mg/kg, repeated intragastric 15 mg/kg, Day 1, read-out: Residence time MRT)?
**A.** The MRT at 1 day was 5.4 h.

**Q.** What about the Vd/F (15 mg/kg, repeated intragastric 15 mg/kg, Day 7, read-out: Apparent volume of distribution Vz/F) of the same molecule?
**A.** Its Vd/F is 2.13 L/kg.

**Q.** What about the AUC (15 mg/kg, repeated intragastric 15 mg/kg, Day 7, read-out: Area under curve AUC) of the same molecule?
**A.** Its AUC is 70900 ng·h/mL.

**Q.** And the CL/F (15 mg/kg, repeated intragastric 15 mg/kg, Day 7, read-out: Clearance CL/F)?
**A.** Its CL/F is 3.58 mL/min/kg.

**Q.** What about the half-life (15 mg/kg, repeated intragastric 15 mg/kg, Day 7, read-out: Half-life T1/2 (converted)) of the same molecule?
**A.** The half-life was 6.5 h.

**Q.** What about the Cmax (15 mg/kg, repeated intragastric 15 mg/kg, Day 7, read-out: Plasma concentration Cmax) of the same molecule?
**A.** Its Cmax is 16800 ng/mL.

**Q.** What about the MRT (15 mg/kg, repeated intragastric 15 mg/kg, Day 7, read-out: Residence time MRT) of the same molecule?
**A.** Its MRT is 6.7 h.

**Q.** And the Vd/F (15 mg/kg, repeated intragastric 15 mg/kg, Day 14, read-out: Apparent volume of distribution Vz/F)?
**A.** The Vd/F was 1.45 L/kg.

**Q.** And the AUC (15 mg/kg, repeated intragastric 15 mg/kg, Day 14, read-out: Area under curve AUC)?
**A.** Its AUC is 82900 ng·h/mL.

**Q.** And the CL/F (15 mg/kg, repeated intragastric 15 mg/kg, Day 14, read-out: Clearance CL/F)?
**A.** Its CL/F is 2.98 mL/min/kg.

**Q.** What about the half-life (15 mg/kg, repeated intragastric 15 mg/kg, Day 14, read-out: Half-life T1/2 (converted)) of the same molecule?
**A.** The half-life was 5.6 h.

**Q.** What about the Cmax (15 mg/kg, repeated intragastric 15 mg/kg, Day 14, read-out: Plasma concentration Cmax) of the same molecule?
**A.** Its Cmax is 14100 ng/mL.

**Q.** What about the MRT (15 mg/kg, repeated intragastric 15 mg/kg, Day 14, read-out: Residence time MRT) of the same molecule?
**A.** The MRT was 6.4 h.

**Q.** And the Vd/F (30 mg/kg, repeated intragastric 30 mg/kg, Day 1, read-out: Apparent volume of distribution Vz/F)?
**A.** Its Vd/F is 2.26 L/kg.

**Q.** And the AUC (30 mg/kg, repeated intragastric 30 mg/kg, Day 1, read-out: Area under curve AUC)?
**A.** Its AUC is 105000 ng·h/mL.

**Q.** And the CL/F (30 mg/kg, repeated intragastric 30 mg/kg, Day 1, read-out: Clearance CL/F)?
**A.** Its CL/F is 4.72 mL/min/kg.

**Q.** And the half-life (30 mg/kg, repeated intragastric 30 mg/kg, Day 1, read-out: Half-life T1/2 (converted))?
**A.** Its half-life is 5.6 h.

**Q.** And the Cmax (30 mg/kg, repeated intragastric 30 mg/kg, Day 1, read-out: Plasma concentration Cmax)?
**A.** The Cmax was 18700 ng/mL.

**Q.** What about the MRT (30 mg/kg, repeated intragastric 30 mg/kg, Day 1, read-out: Residence time MRT) of the same molecule?
**A.** Its MRT is 6.4 h.

**Q.** And the Vd/F (30 mg/kg, repeated intragastric 30 mg/kg, Day 7, read-out: Apparent volume of distribution Vz/F)?
**A.** The Vd/F was 2.15 L/kg.

**Q.** And the AUC (30 mg/kg, repeated intragastric 30 mg/kg, Day 7, read-out: Area under curve AUC)?
**A.** The AUC was 121000 ng·h/mL.

**Q.** And the CL/F (30 mg/kg, repeated intragastric 30 mg/kg, Day 7, read-out: Clearance CL/F)?
**A.** The CL/F was 4.14 mL/min/kg.

**Q.** What about the half-life (30 mg/kg, repeated intragastric 30 mg/kg, Day 7, read-out: Half-life T1/2 (converted)) of the same molecule?
**A.** The half-life was 5.9 h.

**Q.** What about the Cmax (30 mg/kg, repeated intragastric 30 mg/kg, Day 7, read-out: Plasma concentration Cmax) of the same molecule?
**A.** The Cmax was 21600 ng/mL.

**Q.** What about the MRT (30 mg/kg, repeated intragastric 30 mg/kg, Day 7, read-out: Residence time MRT) of the same molecule?
**A.** Its MRT is 6.7 h.

**Q.** And the Vd/F (30 mg/kg, repeated intragastric 30 mg/kg, Day 14, read-out: Apparent volume of distribution Vz/F)?
**A.** Its Vd/F is 1.69 L/kg.

**Q.** And the AUC (30 mg/kg, repeated intragastric 30 mg/kg, Day 14, read-out: Area under curve AUC)?
**A.** The AUC was 139000 ng·h/mL.

**Q.** What about the CL/F (30 mg/kg, repeated intragastric 30 mg/kg, Day 14, read-out: Clearance CL/F) of the same molecule?
**A.** Its CL/F is 3.52 mL/min/kg.

**Q.** What about the half-life (30 mg/kg, repeated intragastric 30 mg/kg, Day 14, read-out: Half-life T1/2 (converted)) of the same molecule?
**A.** Its half-life is 5.6 h.

**Q.** And the Cmax (30 mg/kg, repeated intragastric 30 mg/kg, Day 14, read-out: Plasma concentration Cmax)?
**A.** Its Cmax is 20000 ng/mL.

**Q.** And the MRT (30 mg/kg, repeated intragastric 30 mg/kg, Day 14, read-out: Residence time MRT)?
**A.** The MRT was 6.9 h.
